The record followed here is patent US7357832B2, “Water base pigment ink for ink-jet recording, ink cartridge accommodating the same, and ink-jet recording method” (Brother Kogyo Kabushiki Kaisha, priority 2004, dated 2008).

This data set can be described thus: saturation vapor pressure. It is filed as physicochemical.

`COCC(C)OC(C)=O` (centres unmarked) [PGMEA, propylene glycol methyl ether acetate] had a Saturation vapor pressure of 5 hPa.

In turn, `CCCOC(C)COC(C)CO` (centres unmarked) [DPGPE, dipropylene glycol-n-propyl ether] yielded a Saturation vapor pressure of 0.03 hPa.

`CCCOCC(C)O` (centres unmarked) [PGPE, propylene glycol-n-propyl ether] gave a Saturation vapor pressure of 2.21 hPa.

In turn, `CCOCC(C)O` (centres unmarked) [PGEE, propylene glycol ethyl ether] gave a Saturation vapor pressure of 9.4 hPa.

`COCC(C)O` (centres unmarked) [PGME, propylene glycol methyl ether] came in with a Saturation vapor pressure of 8.71 hPa.
